Measurements reported in patent EP4818176A1, “TETRACYCLIC DERIVATIVE INHIBITOR, AND PREPARATION METHOD AND USE THEREFOR” (Shanghai Hansoh Biomedical Co., Ltd., priority 2023, dated 2025).
Like-named read-outs stand apart in the source and are kept apart here.

What was measured:
HCT116 wild-type cells = assay: Cell proliferation inhibition (CellTiter-Glo), HCT116 wild-type cells; assay type: cell-based; settings: Homo sapiens
Excerpt: (§1) Test Example 2: Determination of the inhibitory effect of the compounds of the present invention on the proliferation activity of HCT116 and MTAP Knockout HCT116 cells.
(§2) 1 Experimental objective: The objective of this test example is to determine the inhibitory effect of the compound on the proliferation activity of HCT116 wild-type and HCT116 MTAP knockout cells. 2 Experimental instruments: Centrifuge (Eppendorf 5810R); microplate reader (BioTek Synergy H1 or PerkinElmer Envision); pipette (Eppendorf or Rainin). 3 Experimental reagents: HCT116 and MTAP Knockout HCT116 cells were purchased from Nanjing Cobioer; Cell Titer-Glo was purchased from Promega (Cat. No. G7573); McCoy'5A was purchased from Gibco (Cat. No. 12330031); FBS was purchased from Gibco (Cat. No. 10091148); PBS was purchased from Gibco (Cat. No. 10010023); trypsin was purchased from Gibco (Cat. No. 25200056); cell culture plates were purchased from Corning (Cat. No. 3610). 4 Experimental method: HCT116 and MTAP Knockout HCT116 cells were cultured in McCoy'5A medium containing 10% FBS until an appropriate cell density was reached. The cells were then collected and adjusted to a suitable concentration using complete medium. The cell suspension was seeded into a 96-well plate at 90 µL per well and allowed to adhere overnight in a 37°C, 5% CO2 incubator. Compound solutions of various concentrations were prepared using DMSO and culture medium, with a vehicle control set. The compound solutions were added to the 96-well plate at 10 µL per well, and the plate was incubated in a 37°C, 5% CO2 incubator for an additional 72-240 hours. After incubation, CellTiter-Glo solution was added, and the mixture was mixed uniformly by shaking, followed by incubation in the dark for 10 to 30 minutes. Luminescence was measured using a Synergy H1 or Envision microplate reader. 5 Experimental data processing method: The inhibition rate was calculated using the luminescence signal values, and the concentrations along with the inhibition rates were subjected to non-linear regression curve fitting using Graphpad Prism software to obtain the IC50 values.

[1] = molecular target: T1, PRMT5/MEP50-MTA protein complex (Homo sapiens, UniProt O14744); assay: Thermal shift assay: thermal stability (melting temperature) of PRMT5/MEP50-MTA protein complex; assay type: binding; settings: final compound concentration 8 µM; 2 µM PRMT5/MEP50, 2 µM MTA; Tm minus Tm of DMSO vehicle control
T1 construct: purchased Viva Biotech
Excerpt: Test Example 1: Determination of the ability of the compounds of the present invention to improve the thermal stability (melting temperature) of the PRMT5/MEP50-MTA protein complex.
1 Experimental objective: The objective of this test example is to determine the ability of the compound to improve the thermal stability of the PRMT5/MEP50-MTA protein complex, resulting in an increase in the protein melting temperature. 2 Experimental instruments: Quantitative PCR instrument (Quantstudio6 Flex) was purchased from Life Technologies; pipettes were purchased from Eppendorf or Rainin. 3 Experimental reagents and consumables: PRMT5/MEP50 protein was prepared by Viva Biotech; HEPES was purchased from Thermo Fisher Scientific (Cat. No. 15630080); DTT was purchased from Sigma (Cat. No. 43816-10ml); sodium chloride was purchased from Invitrogen (Cat. No. AM9760G); Protein Thermal Shift™ Dye Kit was purchased from Thermo Fisher Scientific (Cat. No. 4461146); methylthioadenosine (MTA) was purchased from Sigma (Cat. No. D5011). 4 Experimental method: In this experiment, the thermal shift method was used to measure the change in the melting temperature (Tm) of the PRMT5/MEP50-MTA protein complex before and after compound binding, thereby characterising the ability of the compound to improve the thermal stability of the PRMT5/MEP50-MTA protein complex. A solution containing 50 mM HEPES, 10 mM DTT, 2 µM MTA, SYPRO Orange and 250 mM NaCl was prepared as the experimental buffer. Human PRMT5/MEP50 protein was added to a final concentration of 2 µM, and the mixture was incubated at room temperature for 30 minutes. The above reaction mixture was aliquoted into 8-strip PCR tubes at 19.5 µL per tube. Then 0.5 µL of test compound or DMSO was added to each tube, providing a total reaction volume of 20 µL and a final compound concentration of 8 µM. 2.5% DMSO was set as the vehicle control. After incubation at room temperature for 10 minutes, the PCR tubes were placed in a PCR instrument, and the melt curve function was selected to measure the melting temperature of the PRMT5/MEP50-MTA protein complex in different treatment groups (heated from 25°C to 95°C, 0.03°C/s). 5 Experimental data processing method: The experimental data files from the PCR instrument were imported into the thermal shift software to obtain the melting temperature (Tm) for each treatment group.

[2] = Pharmacokinetics in rats (plasma) after oral administration; assay type: in vivo; settings: rat, po, SD rats, p.o. 5 mg/kg; for Cmax: read-out: Cmax; for MRT inf: read-out: MRT0-∞; for Tmax: read-out: tmax
Procedure: Test Example 4: Determination of the pharmacokinetics of the compounds of the present invention in rats (plasma) after oral administration.
1 Study objective: SD rats were used as test animals to study the pharmacokinetic behaviour of the following example compounds in rats (plasma) after oral administration at a dose of 5 mg/kg. 2 Test scheme • 2.1 Test drugs: Vehicle formula: 0.5% CMC-Na (1% Tween 80); the examples of the present invention, made in house. • 2.2 Test animals: 3 SD rats per group, male, purchased from Shanghai Bikai Keyi Biotechnology Co., Ltd., with animal license number (SCXK (Shanghai) 2018-0006, No.20180006037467). • 2.3 Administration: 3 SD rats per group, male, were fasted overnight and then respectively administered PO at a dose of 5 mg/kg and a volume of 10 mL/kg. • 2.4 Sample collection: 0.2 mL of blood was collected from the jugular vein of rats before administration and at 0, 0.25, 0.5, 1, 2, 4, 6, 8 and 24 h after administration, and placed in EDTA-K2test tubes, and the test tubes were centrifuged at 6,000 rpm at 4°C for 6 min to separate the plasma, which was stored at -80°C. The animals were fed 4 h after administration. • 2.5 Sample treatment • 1) 160 uL of acetonitrile was added to 40 uL of plasma sample for precipitation, and after mixing, the mixture was centrifuged at 3,500 × g for 5-20 minutes. • 2) 100 uL of the treated supernatant solution was taken for LC/MS/MS analysis to determine the concentration of the test compounds. • 2.6 Liquid phase analysis • Liquid phase conditions: Shimadzu LC-20AD pump;mass spectrometry conditions: AB Sciex API 4000 mass spectrometer • Chromatographic column: Phenomenex Gemiu 5 um C18 50 × 4.6 mm • Mobile phase: solution A: 0.1% formic acid in water, solution B: methanol • Flow rate: 1.0 mL/min, elution time: 0-4.0 min, with eluents as follows:
Experimental results and analysis: The main pharmacokinetic parameters were calculated using WinNonlin 8.2.

[3] = test system: MTAP Knockout HCT116 cells; assay: Cell proliferation inhibition (CellTiter-Glo), HCT116 MTAP knockout cells; assay type: cell-based; settings: for Selectivity: HCT116 IC50 versus MTAP Knockout HCT116 IC50; for IC50: Homo sapiens
Excerpt: as §1, §2

[4] = HCT-116, HCT116 wild-type cells, proliferation inhibition, Cell Titer-Glo, read-out: HCT116 IC50
[5] = HCT-116, MTAP Knockout HCT116 cells, proliferation inhibition, Cell Titer-Glo, read-out: MTAP Knockout HCT116 IC50
[6] = HCT-116, read-out: MTAP Knockout HCT116 IC50

T1 sequence (O14744 whole entry): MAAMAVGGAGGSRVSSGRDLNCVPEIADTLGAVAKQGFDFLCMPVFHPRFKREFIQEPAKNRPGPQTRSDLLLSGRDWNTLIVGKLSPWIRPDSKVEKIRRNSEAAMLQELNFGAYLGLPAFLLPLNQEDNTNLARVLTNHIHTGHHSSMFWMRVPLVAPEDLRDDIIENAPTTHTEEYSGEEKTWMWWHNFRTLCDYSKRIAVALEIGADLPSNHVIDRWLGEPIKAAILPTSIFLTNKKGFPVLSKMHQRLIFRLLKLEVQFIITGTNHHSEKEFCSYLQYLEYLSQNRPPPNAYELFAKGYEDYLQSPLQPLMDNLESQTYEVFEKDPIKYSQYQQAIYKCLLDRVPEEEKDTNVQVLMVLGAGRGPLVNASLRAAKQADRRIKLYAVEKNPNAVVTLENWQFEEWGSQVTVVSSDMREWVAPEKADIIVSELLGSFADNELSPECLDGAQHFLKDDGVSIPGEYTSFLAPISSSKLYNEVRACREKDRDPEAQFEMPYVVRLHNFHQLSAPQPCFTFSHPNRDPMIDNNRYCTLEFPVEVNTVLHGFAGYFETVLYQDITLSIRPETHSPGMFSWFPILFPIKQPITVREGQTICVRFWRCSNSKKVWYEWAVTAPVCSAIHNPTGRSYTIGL
T1 sequence (Q9BQA1 whole entry partner): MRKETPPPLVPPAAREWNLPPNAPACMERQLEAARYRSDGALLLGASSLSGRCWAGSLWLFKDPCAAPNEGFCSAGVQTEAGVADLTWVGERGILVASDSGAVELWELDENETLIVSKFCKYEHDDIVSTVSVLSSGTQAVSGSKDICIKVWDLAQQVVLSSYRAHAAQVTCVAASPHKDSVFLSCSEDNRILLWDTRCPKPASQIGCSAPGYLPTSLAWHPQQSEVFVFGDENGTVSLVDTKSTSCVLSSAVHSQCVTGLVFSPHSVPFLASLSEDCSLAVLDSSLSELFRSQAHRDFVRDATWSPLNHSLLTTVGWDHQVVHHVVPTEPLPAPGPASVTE

SMILES	IC50 (HCT116 wild-type cells; [4]) [µM]	ΔTm at 8 µM [1] [°C]	Selectivity [3]	IC50 [3, 5] [µM]	IC50 (HCT116 wild-type cells; HCT-116, read-out: HCT116 IC50) [µM]	IC50 [3, 6] [µM]	also measured
Nc1nc2cc3c(cc2n2cncc12)C(=O)N(C1COc2cc(C(F)(F)F)ccc21)CCC/C=C\3 (racemic) [Example 164, (Z)-4-Amino-12-(6-(trifluoromethyl)-2,3-dihydrobenzofuran-3-yl)-9,10,11,12-tetrahydro-13H-azo[4,3-g]imidazo[1,5-a]quinoxalin-13-one]	6.63	11.2	406	0.016	–	–	AUC(0-inf) ([2]; in vivo): 2520 ng·h/mL; half-life ([2]; in vivo): 4.7 h; Cmax ([2]; in vivo): 183 ng/mL; MRT inf ([2]; in vivo): 7.6 h; Tmax ([2]; in vivo): 4 h
Nc1nc2cc3c(cc2n2cncc12)C(=O)N(Cc1ccc(S(F)(F)(F)(F)F)cn1)CCCOC3 [Example 414, 4-Amino-12-((5-(pentafluoro-λ^6-sulphanyl)pyridin-2-yl)methyl)-9,10,11,12-tetrahydroimidazo[1,5-a][1,5]oxazonino[8,7-g]quinoxalin-13(7H)-one]	0.229	12.3	47	0.0049	–	–	AUC(0-inf) ([2]; male): 949 ng·h/mL; half-life ([2]; male): 1.3 h; Cmax ([2]; male): 208 ng/mL; MRT inf ([2]; male): 3.3 h; Tmax ([2]; male): 2 h
Nc1nc2cc3c(cc2c2c1COC2)C(=O)N(Cc1ccc(S(F)(F)(F)(F)F)cn1)CCCOC3 [Example 434, 4-Amino-3-methyl-12-((5-(pentafluorosulphanyl)pyridin-2-yl)methyl)-3,7,9,10,11,12-hexahydrofuro[3,4-c][1,5]oxazolo[7,8-g]quinolin-13(1H)-one]	–	12.2	87	–	0.578	0.0067	AUC(0-inf) [2]: 2330 ng·h/mL; half-life [2]: 3.1 h; Cmax [2]: 273 ng/mL; MRT inf [2]: 5.3 h; Tmax [2]: 2 h
C[C@H]1OCc2c1c(N)nc1cc3c(cc21)C(=O)N(Cc1ccc(S(F)(F)(F)(F)F)cn1)CCCOC3 [Example 437-P1, (R)-4-Amino-3-methyl-12-((5-(pentafluorosulphanyl)pyridin-2-yl)methyl)-3,7,9,10,11,12-hexahydrofuro[3,4-c][1,5]oxazolo[7,8-g]quinolin-13(1H)-one]	–	12.6	85	–	0.187	0.0022	AUC(0-inf) ([2]; in vivo): 2050 ng·h/mL; half-life ([2]; in vivo): 2.4 h; Cmax ([2]; in vivo): 318 ng/mL; MRT inf ([2]; in vivo): 3.7 h; Tmax ([2]; in vivo): 2 h
Nc1nc2cc3c(cc2c2c1COC2)C(=O)N(Cc1ccc(C(F)(F)F)cn1)CC/C=C\3 [Example 638, (Z)-4-Amino-11-((5-(trifluoromethyl)pyridin-2-yl)methyl)-3,9,10,11-tetrahydronaphthyrido[3,4-g]furo[3,4-e]quinoxalin-12(1H)-one]	–	12.3	71	–	0.318	0.0045	AUC(0-inf) [2]: 929 ng·h/mL; half-life [2]: 1.8 h; Cmax [2]: 241 ng/mL; MRT inf [2]: 3.5 h; Tmax [2]: 1.7 h
CC1OCc2c1c(N)nc1cc3c(cc21)C(=O)N(Cc1ccc(S(F)(F)(F)(F)F)cn1)CCCOC3 (racemic) [Example 437, 4-Amino-3-methyl-12-((5-(pentafluorosulphanyl)pyridin-2-yl)methyl)-3,7,9,10,11,12-hexahydrofuro[3,4-c][1,5]oxazolo[7,8-g]quinolin-13(1H)-one]	–	12.2	64	–	0.191	0.003	–
Nc1nc2cc3c(cc2n2cncc12)C(=O)N(Cc1ccc(S(F)(F)(F)(F)F)cc1)CCCOC3 [Example 214, 4-Amino-12-(4-(pentafluoro-λ^6-sulphanyl)benzyl)-9,10,11,12-tetrahydroimidazo[1,5-a][1,5]oxazonino[8,7-g]quinoxalin-13(7H)-one]	0.106	12.3	20	0.0053	–	–	–
CC1OCc2c1c(N)nc1cc3c(cc21)C(=O)N(Cc1ccc(-c2c(F)cccc2F)cn1)CCCNC3 (stereo not drawn) [Example 435, 4-Amino-12-((5-(2,6-difluorophenyl)pyridin-2-yl)methyl)-3-methyl-1,3,7,8,9,10,11,12-octahydro-13H-[1,5]diamine[7,8-g]furo[3,4-c]quinolin-13-one]	–	12.8	41	–	0.078	0.0019	–
